{"source": "patent US12714702B2", "about": "“Compositions and methods for treating or preventing pulmonary hypertension” (priority 2020, dated 2026)", "key": {"ITCH/AIP4 E3 ligase": {"target": "ITCH/AIP4 E3 ligase (Homo sapiens, UniProt Q96J02)", "sequence (Q96J02 whole entry)": "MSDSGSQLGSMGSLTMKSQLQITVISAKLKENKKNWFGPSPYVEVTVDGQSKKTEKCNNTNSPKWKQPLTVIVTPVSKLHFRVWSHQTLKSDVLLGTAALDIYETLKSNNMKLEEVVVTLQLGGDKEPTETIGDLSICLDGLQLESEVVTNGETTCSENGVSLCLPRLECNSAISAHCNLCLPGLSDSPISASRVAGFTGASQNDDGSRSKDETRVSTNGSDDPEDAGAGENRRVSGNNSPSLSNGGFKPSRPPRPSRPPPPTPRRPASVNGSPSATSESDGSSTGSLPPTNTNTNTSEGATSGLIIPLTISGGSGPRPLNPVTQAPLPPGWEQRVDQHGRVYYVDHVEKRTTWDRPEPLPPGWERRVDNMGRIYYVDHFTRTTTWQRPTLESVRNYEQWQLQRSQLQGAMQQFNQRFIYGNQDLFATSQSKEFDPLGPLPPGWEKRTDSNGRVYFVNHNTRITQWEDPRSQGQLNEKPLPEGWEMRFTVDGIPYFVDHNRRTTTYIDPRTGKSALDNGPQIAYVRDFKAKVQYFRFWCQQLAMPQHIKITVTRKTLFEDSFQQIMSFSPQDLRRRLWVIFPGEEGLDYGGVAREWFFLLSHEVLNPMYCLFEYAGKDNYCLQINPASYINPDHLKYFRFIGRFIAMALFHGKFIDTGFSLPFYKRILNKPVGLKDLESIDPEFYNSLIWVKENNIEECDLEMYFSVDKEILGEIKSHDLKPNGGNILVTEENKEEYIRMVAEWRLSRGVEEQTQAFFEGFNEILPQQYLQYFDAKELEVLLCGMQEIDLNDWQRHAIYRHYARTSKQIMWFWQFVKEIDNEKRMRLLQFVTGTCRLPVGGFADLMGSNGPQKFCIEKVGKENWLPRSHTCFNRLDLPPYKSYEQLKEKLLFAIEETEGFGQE", "test": "ITCH/AIP4 E3 ligand activity assay, ubiquitin ELISA (UbiQuant)", "type": "biochemical", "settings": "20 μM dose", "experimental": "The ligand activity inhibition by QA at multiple concentrations (0, 10, or 20 μM) in presence of ubiquitin was quantified."}, "[1]": {"tested_on": "LC3B-II in high-altitude bovine PASMCs", "test": "Autophagy inhibition assay (LC3B-II expression), western blot", "type": "cell-based", "settings": "high altitude bovine PASMC cell lysate, QA 5 μM", "experimental": "(§1) In FIGS. 9A-9B, PASMC were serum starved for 24 hours, and then treated with varying QA concentrations in serum-starved media. Quantification was performed using Cyto-ID® autophagy kit and Annexin-V/FITC apoptosis kit. […] In FIG. 9C, autophagy inhibition by QA (5 μM) as depicted by increase in LC3B-II concentration in bovine high altitude PASMC quantified by western blot assay kit. Data represent mean±SD (n=3). *p<0.05.\nHigh-altitude bovine PASMCs were used to determine the effect of QA on LC3B-II, an autophagy marker, by western blotting (#3868S, LC3B (D11) XP Rabbit monoclonal antibody, Cell Signaling, Danvers, MA).\nAutophagy inhibition (lysosomal fusion with autophagosomes) by QA was examined. Bovine PASMCs were serum starved in FBS-free media for 24 hours, and then treated with QA (2.5 and 5 μM) for 24 hours. Autophagic inhibition was measured with Cyto-ID® autophagy detection kit. […] QA-induced autophagy inhibition by targeting LC3B-II expression was examined using HAPASMCs."}, "primary human PASMC": {"tested_on": "primary human PASMC", "test": "Standard cell proliferation, CyQUANT Direct", "type": "cell-based", "settings": "Day 3 and Day 5, single QA treatment at 3.1 and 6.2 μM", "experimental": "Primary human PASMC were treated with QA up to 6.2 μM concentration. Cell proliferation was quantified by Cyquant Direct.\nCellular proliferation for diseased IPAH SMC II (Patient ID: L164) cells was evaluated using CyQUANT™ Direct Cell Proliferation Assay (ThermoFisher Scientific, Waltham, MA, USA). Briefly, upon 90% confluency, SMCs were harvested and seeded in TC-treated 96-well plates at a density of 1000 cells/well and were allowed to adhere overnight.\nHuman or bovine PASMC were treated with varying concentrations of QA (1.5-, 3.1-, and 6.2-μM). Cellular proliferation was measured at day 1, day 3 and day 5 by following the manufacturer's protocol. Briefly, a reagent mix of nucleic acid stain and background suppressor were added in PBS followed by addition of the mix in treatment wells (100 μL/well). The plates were incubated at 37° C./5% CO2 for one hour followed by evaluation of fluorescence at 485 ex/535 em. Proliferation inhibition was analyzed relative to control wells on each time point. Data was averaged from two trials with n=6 for SMC II and one trial of n=4 for SMC III.\nIn-vitro studies to measure anti-proliferative activity of QA against pulmonary hypertension were performed using primary human PASMC (FIG. 3), primary bovine PASMC (FIG. 4) and high altitude PASMC (HAPASMC) (FIG. 4). […]"}, "[2]": {"tested_on": "serum-starved bovine PASMCs", "test": "Annexin V FITC assay (apoptotic induction)", "type": "cell-based", "settings": "2.5 or 5 μM, 24 hours, concentration-dependent", "experimental": "as §1\nBovine PASMC were serum starved in FBS-free media for 24 hours, and then treated with QA for 24 hours at various concentrations (0, 2.5, or 5 μM). Annexin V levels were measured with Annexin V FITC assay kit (#600300, Cayman Chemical, Ann Arbor, MI) according to manufacturer's manual.\nAn apoptotic induction assay, i.e., Caspase-3 assay was performed to understand QA's impact on cellular apoptosis in primary human PASMCs following 6-hour treatment. […] Moreover, another apoptotic induction assay, i.e., Annexin V FITC assay was also used to measure the effects of QA on serum-starved bovine PASMCs.\nIn other independent experiments, QA's ability to modulate autophagy/apoptotic pathways was quantified in vitro in serum-starved bovine PASMC cells. Similar results were observed."}, "[3]": {"tested_on": "MCT-induced rodent model of pulmonary hypertension", "test": "Monocrotaline (MCT) induced therapeutic rat model of pulmonary hypertension, hemodynamics", "type": "in vivo", "settings": "MCT rats, QA 10 mg/kg s.c. once-a-day for 10 days starting 3 weeks after MCT", "experimental": "Adult male SD rats were injected with MCT (50 mg/kg) by subcutaneous injection. QA administration was initiated 21 days (3 weeks) after MCT administration, once-a-day by subcutaneous route at 10 mg/kg for 10 days. […] Data represent mean±SEM (n=5). *p<0.05.\nPreclinical in-vivo studies for QA were earlier performed at a dose of 10 mg/kg once-a-day in monocrotaline (MCT) induced therapeutic PAH model. Hemodynamic parameters were collected and lung tissues were also collected and were sectioned for visualizing the impact of QA treatment on various PAH biomarkers in-vivo.\nTo determine the therapeutic activity of QA against PH, the drug was tested using chronic hemodynamic studies in a monocrotaline (MCT)-induced rodent model of pulmonary hypertension. MCT induction is a well established preliminary model, with a single subcutaneous injection of MCT producing chronic PH-like symptoms in rats over a course of 3-4 weeks. Briefly, MCT was subcutaneously injected in adult male Sprague Dawley (SD) rats at 50 mg/kg, and rats were housed for 3 weeks with free access to food and water. […] At the end of day 10, animals were anesthetized to determine right ventricular systolic pressure (RVSP) by RV catheterization, and RV hypertrophy (RVH) was measured by collecting the heart-lung blocks."}, "[4]": {"tested_on": "pulmonary arterioles of SU5416/hypoxia-induced PAH animals", "test": "SU5416/hypoxia model, muscularization, trichrome staining and medial wall thickness", "type": "in vivo, rat", "experimental": "Adult male rats were injected with SU5416 (20 mg/kg) subcutaneously and were kept under hypoxia (10% O2) for 3 weeks. QA was administered once-a-day intraperitoneally at a dose of 10 mg/kg for 21 days starting from Day 1. […] Data represent mean±SD (n=4-5). *p<0.05.\nAt the end of treatment period with QA, animals were sacrificed. Chest was surgically opened to expose rat lungs. Lung tissues were collected, and blinded tissues were sectioned by Reveal Bio (San Diego, CA) at 5 μm thickness. 2 tissue sections for each animal were earmarked for Trichrome staining; and 8 more sections were provided blank for custom staining.\nTissue sections were stained using trichrome staining to visualize pulmonary arteries for all treatment and control groups. Stained lung sections were imaged using Zeiss Axio Scope A1 microscope equipped with Axiocam 506 color camera and Zeiss Zen 2.3 software. Medial wall thickness for similar sized pulmonary arteries was measured using a Motic BA210 microscope and measurements were made using Motic Image plus 2.0 software. Five pulmonary artery walls were analyzed per animal (n=2 to 5)\nAfter 3 weeks, hemodynamic studies were performed."}}}
{"smiles": "CCN(CC)CCCC(C)Nc1c2ccc(Cl)cc2nc2ccc(OC)cc12", "note": "(stereo not drawn) [QA, quinacrine]", "values": [{"measurement": "reduction in total polyubiquitination resulting from ITCH/AIP4 activity", "setting": "ITCH/AIP4 E3 ligase", "result": "~ 25%"}, {"measurement": "increase in LC3B-II expression", "setting": "[1]", "result": "> 2", "unit": "fold"}, {"measurement": "cellular hyper-proliferation", "setting": "primary human PASMC", "result": "Significant reduction"}, {"measurement": "apoptotic induction (fluorescence intensity of Annexin-V stained cells)", "setting": "[2]", "result": "significantly enhanced apoptotic induction"}, {"measurement": "right ventricular systolic pressure (RVSP)", "setting": "[3]", "result": "39.9±1.8", "unit": "mm Hg"}, {"measurement": "medial wall thickness in pulmonary arterioles", "setting": "[4]; SU5416/hypoxia rats (FIG. 14D)", "result": "significant reduction"}, {"measurement": "vessel muscularization (less completely muscularized blood vessels than control)", "setting": "[4]; SU5416/hypoxia rats, pulmonary arterioles", "result": 3.5, "unit": "folds"}, {"measurement": "collagen and muscular deposition in pulmonary arterioles", "setting": "[4]; SU5416/hypoxia rats, trichrome staining", "result": "significant reduction"}, {"measurement": "reduction in medial wall thickness of pulmonary arteries", "setting": "[4]; compared to SU5416/hypoxia-induced PAH animal tissue sections (FIG. 16)", "result": "about 2 fold"}]}
